Test system: fecal total bile acid (FBA)
Assay: Fecal bile acids in monkeys, LUM001 for 14 days
Assay type: in vivo, rhesus monkeys
Conditions: n=5
Excerpt: Fifteen experimentally naive male rhesus monkeys were utilized in this study. These animals were 2.1 to 4.2 years of age and weighed between 2.8 to 4.3 kg on the day prior to treatment initiation. HARLAN TEKLAD PRIMATE DIET® (Certified) was provided daily in amounts appropriate for the size and age of the animals. The diet was supplemented with fruit or vegetables 2-3 times weekly. Small bits of fruit, cereal or other treats were given to the animals following dose administration and periodically as part of facility's environmental enrichment program. Beginning prior to treatment initiation, only non-fat treats were provided to the animals (e.g., standard primate treats including peanut butter, sunflower seeds, baby food, nuts, pudding, and worms were specifically not permitted). Tap water was available ad libitum via an automatic watering device. Each animal was administered a dose of the LUM001 contained within gelatin capsules or the control article (empty gelatin capsules) once daily for 14 consecutive days. Fecal samples for determination of bile acid content were collected over approximately 24-hour periods beginning three days prior to treatment initiation and continuing until scheduled termination of dosing on Day 15. Samples were stored at −70 C until analysis.
Fecal samples were collected to determine the fecal total bile acid (FBA) concentration for each animal. Fecal collections were made during the final 72 hours of the study, for three consecutive 24-hour periods between 9:00 am and 10:00 am each day, prior to dosing and feeding. The separate daily collections from each dog were weighed, combined and homogenized with distilled water in a food processor to generate a homogeneous slurry. Homogenate (1.4 g) was extracted in a final concentration ratio of 2:0.6 of 50% (v/v) tertiary butanol/distilled water for 45 minutes in a 37° C. water bath and subjected to centrifugation for 13 minutes at 2000×g. The concentration of bile acids (mmolesgram homogenate) was determined using a 96-well enzymatic assay system. Aliquots of the fecal extracts (20 μl) were added to two sets of triplicate wells in a 96 well assay plate. A standardized sodium taurocholate solution and a standardized fecal extract solution (previously made from pooled samples and characterized for its bile acid concentration) were also analyzed for assay quality control. Aliquots of sodium taurocholate (20 μl), were serially diluted to generate a standard curve containing 30-540 nmoles/well. A 230 μl aliquot of reaction mixture containing 1M hydrazine hydrate, 0.1 M pyrophosphate and 0.46 mg/ml NAD was added to each well. […] Following 60 minutes of incubation at room temperature, the optical density at 340 nm was measured and the mean of each set of triplicate samples was calculated. […]

CCCCC1(CCCC)CS(=O)(=O)c2ccc(N(C)C)cc2[C@@H](c2ccc(OCc3ccc(C[N+]45CCN(CC4)CC5)cc3)cc2)[C@H]1O [LUM001]
Fecal Total Bile Acids (5 mg/kg once daily 14 days, Day 15): 23 µmol/day/kg | Fecal Total Bile Acids (5 mg/kg once daily, Prestudy): 6 µmol/day/kg | Fecal Total Bile Acids (50 mg/kg once daily 14 days, Day 15): 63 µmol/day/kg | Fecal Total Bile Acids (50 mg/kg once daily, Prestudy): 6 µmol/day/kg

From patent US20140271734A1, “BILE ACID RECYCLING INHIBITORS FOR TREATMENT OF BARRETT'S ESOPHAGUS AND GASTROESOPHAGEAL REFLUX DISEASE” (LUMENA PHARMACEUTICALS, INC., priority 2013, published 2014)
